Source: patent US20200121747A1, “COMPOSITION FOR PREVENTING OR TREATING ARTHRITIS COMPRISING HYDROQUINOIC ACID” (PUKYONG NATIONAL UNIVERSITY INDUSTRY-UNIVERSITY COOPERATION …, priority 2018, published 2020)

Assay: Body weight change in rheumatoid arthritis (CIA) mice
Assay type: in vivo, DBA/1J mice
Settings: arthritis mice treated with 10 mg and 20 mg of SHQA; measured weekly for 7 weeks; FIG. 4
Protocol: Eight weeks old male DBA/1J mice (Central Lab Animal Inc., Seoul, Korea) were raised for 1 week in an environment maintaining temperature (25±2° C.), humidity (55%) and 12 hour light and dark cycle. All experiments were carried out in accordance with the guidelines of the Korean National Institutes of Health Guide for the Care and Use of Laboratory Animals, and the animal testing procedure was approved by the Animal Ethics Committee of Pukyong National University (2015-12). Rheumatoid arthritis was induced in male DBA/1J mice. Type II collagen was emulsified (CFA; 2 mg/mL) in the same volume of complete Freund's adjuvant. On day 0, 100 μg of […] was injected intradermally into the lower tail portion of the DBA/1J mice to immunize. After 21 days, 100 μg of CII (IFA; 2 mg/mL) emulsified in the same volume of incomplete Freund's adjuvant in the lower tail portion of the mice was boosted by intradermal injection. On day 42, all mice were anesthetized with ether and sacrificed. Blood (plasma sample), spleen, liver and joint tissues were immediately removed and stored at −80° C. […]
For the control group without treatment, the arthritis animal group (CIA treatment group), and the treated group in which arthritis experimental animals were treated with 10 mg and 20 mg of SHQA, their body weights were measured weekly for 7 weeks. […]

CC(C)=CCC/C(=C/CC/C(C)=C/CC/C(C)=C/Cc1cc(O)cc(C)c1O)C(=O)O [SHQA, sargahydroquinoic acid]
change in body weight: no significant change in body weight
